Data taken from US20090022739A1, “MODULATING THE KV1.1 VOLTAGE-GATED POTASSIUM CHANNEL IN T-CELLS FOR REGULATING THE […] AND SECRETION OF TUMOR NECROSIS FACTOR ALPHA (tnf-ALPHA) AND TREATING HUMAN DISEASE OR INJURIES MEDIATED BY […] HIGH OR LOW LEVELS OF TNF-ALPHA” (priority 2005, published 2009).
Where two headings read alike, the source gives them in different places. No end group written: not given here.

What was measured:
normal human T-cells = type: cell-based; details: for effect on DTX-K-induced TNF-α secretion: 100 μM blocker added 5 min before 100 nM DTX-K, FIG. 2K; for fold increase in TNFα secretion: FIG. 1A, DTX-K 100 nM, other blockers at highest concentration used
Protocol: Human T-Cells: Normal human T-cells were purified from peripheral blood of healthy donors as described (Levite et al, 2000; Ganor et al, 2003; Levite t al, 1998), and the resulting cell population, containing ≧90% T-cells, was suspended in RPMI medium supplemented with 10% FCS, 1% L-Glutamine and antibiotics (Biological Industries, Bet Haemek, Israel) and maintained at 2×10^6 cells/ml (37° C./5% CO2).
Determination of TNF-α, IFN-γ, IL-10 and IL-4 by ELISA: Freshly-purified normal resting human T-cells (2×10^6/ml) were incubated in 24-well plates (Costar, Corning, N.Y.) and the various channel blockers were added. […] Cytokine levels were measured in supernatants after 24 hours for TNF-α and IFN-γ and after 72 hours for IL-10 and IL-4, by quantitative sandwich ELISA (R&D, Minneapolis, Minn.), according to the manufacturer's instructions. […]
These 12 blockers were selected on the basis of their reported ability to block most types of K^+, Na^+, Ca^2+ and Cl^− channels expressed in T-cells (Deutsch et al, 1986; Lewis et al, 1995; Lewis et al, 1988; Rader et al, 1996; Freedman et al, 1995; Koo et al, 1997; Lin et al, 1993; Ishida et al, 1993; Jensen et al, 1999; Kotturi et al, 2003; Phipps et al, 1996; Verheugen et al, 1997; Levite et al, 2000; Chandy et al, 1984). The levels of TNFα secreted into the culture media were tested 24 hours later by ELISA. For positive control, the cells were exposed to the potent phorbol ester PMA, know to activate T-cells in a non-specific manner. The results are shown in FIG. 1A and represent fold increase ±SD TNF-α secretion tested in 2-3 independent experiments. Each ion channel blocker was examined in at least two independent experiments, and at several concentrations covering its effective range (see Materials and Methods). The numbers in each figure next to each blocker represent the highest molar concentration used. Statistical analysis: *P=0.0001, 0.0005, 0.0011 and 0.0005 vs. untreated for MgTX, KTX, DTX-K and PMA, respectively (Student's t-test).

ion channels = details: manufacturer's data sheets and/or the literature; cited from earlier work
[1] = tested on: melanoma in-transit metastases; details: ILP; cited from earlier work
[2] = tested on: cloned Kv1.1, Kv1.2 and Kv1.6 channels; details: cited from earlier work
Kv1.3 = molecular target: T1, Kv1.3 (Homo sapiens, UniProt P22001); details: cited from earlier work
T1 construct: host or cells: Xenopus laevis oocytes
T1 sequence (P22001 whole entry): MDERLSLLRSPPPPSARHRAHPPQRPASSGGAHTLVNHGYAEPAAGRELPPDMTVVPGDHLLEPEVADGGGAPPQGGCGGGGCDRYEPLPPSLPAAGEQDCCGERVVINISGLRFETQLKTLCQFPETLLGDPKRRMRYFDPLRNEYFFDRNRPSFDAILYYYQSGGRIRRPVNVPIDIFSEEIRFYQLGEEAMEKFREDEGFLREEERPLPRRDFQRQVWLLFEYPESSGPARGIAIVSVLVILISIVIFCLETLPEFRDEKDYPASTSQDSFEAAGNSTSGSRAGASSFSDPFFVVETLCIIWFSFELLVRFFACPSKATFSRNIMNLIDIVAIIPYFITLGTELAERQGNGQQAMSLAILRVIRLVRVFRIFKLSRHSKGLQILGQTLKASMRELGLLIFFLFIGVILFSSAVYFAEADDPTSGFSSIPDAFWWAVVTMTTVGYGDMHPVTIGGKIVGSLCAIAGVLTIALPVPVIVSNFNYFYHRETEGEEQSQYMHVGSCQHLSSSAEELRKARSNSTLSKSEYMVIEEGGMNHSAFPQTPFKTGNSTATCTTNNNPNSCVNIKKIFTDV

Kv1.1 [3] = molecular target: T2, Kv1.1 (Homo sapiens, UniProt Q09470); details: Gutman et al, 2003; cited from earlier work
T2 sequence (Q09470 whole entry): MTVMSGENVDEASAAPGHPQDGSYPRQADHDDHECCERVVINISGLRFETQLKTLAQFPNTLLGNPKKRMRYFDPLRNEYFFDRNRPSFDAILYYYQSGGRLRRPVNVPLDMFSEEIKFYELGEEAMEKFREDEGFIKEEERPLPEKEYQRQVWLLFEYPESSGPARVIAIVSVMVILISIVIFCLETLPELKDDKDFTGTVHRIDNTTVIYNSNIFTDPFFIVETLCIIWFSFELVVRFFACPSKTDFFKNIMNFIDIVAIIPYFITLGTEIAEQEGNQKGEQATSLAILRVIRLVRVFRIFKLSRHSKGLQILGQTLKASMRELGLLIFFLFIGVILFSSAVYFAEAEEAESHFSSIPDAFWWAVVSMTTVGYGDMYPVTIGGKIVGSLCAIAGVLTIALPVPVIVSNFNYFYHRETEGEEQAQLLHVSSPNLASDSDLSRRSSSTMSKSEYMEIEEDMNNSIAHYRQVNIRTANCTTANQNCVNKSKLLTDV

Kv1.2 = Kv1.2 (Homo sapiens, UniProt P16389); details: cited from earlier work
Kv1.1 [4] = molecular target: T2, Kv1.1; details: cited from earlier work
[5] = molecular target: Kv1.1 voltage-gated potassium channel of normal human peripheral T-cells (human) (UniProt Q09470); test: cell-based or functional assay
Kv1.1 voltage-gated potassium channel of normal human peripheral T-cells (human), sequence (Q09470 whole entry): as above

Shaker B K^+-channels = Shaker B K^+-channels (Drosophila melanogaster, UniProt P08510); details: at 100 nM concentration; cited from earlier work
Shaker B K^+-channels, sequence (P08510 whole entry): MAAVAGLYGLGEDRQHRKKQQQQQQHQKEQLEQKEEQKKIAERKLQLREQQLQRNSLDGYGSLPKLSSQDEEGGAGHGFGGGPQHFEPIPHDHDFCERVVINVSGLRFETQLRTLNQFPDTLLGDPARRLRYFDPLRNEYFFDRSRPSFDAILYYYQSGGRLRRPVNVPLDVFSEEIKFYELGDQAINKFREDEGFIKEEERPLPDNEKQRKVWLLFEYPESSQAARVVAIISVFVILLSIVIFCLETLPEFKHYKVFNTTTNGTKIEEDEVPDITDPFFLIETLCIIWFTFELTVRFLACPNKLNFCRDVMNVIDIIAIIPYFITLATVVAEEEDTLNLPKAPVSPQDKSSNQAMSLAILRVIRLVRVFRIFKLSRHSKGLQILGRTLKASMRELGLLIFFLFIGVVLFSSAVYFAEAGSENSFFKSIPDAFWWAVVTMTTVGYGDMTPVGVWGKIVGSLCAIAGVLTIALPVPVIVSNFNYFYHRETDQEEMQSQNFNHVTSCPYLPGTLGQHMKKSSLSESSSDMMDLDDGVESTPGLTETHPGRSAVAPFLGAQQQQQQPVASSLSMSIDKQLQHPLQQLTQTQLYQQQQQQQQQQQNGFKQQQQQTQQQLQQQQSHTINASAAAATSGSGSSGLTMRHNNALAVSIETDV

high-grade STS = details: cited from earlier work
[6] = tested on: host ED1-positive cells in the liver; details: administration of TNF-α into the brain; Campbell et al, 2005; cited from earlier work
Kv1.1, Kv1.2 and Kv1.3 = details: cited from earlier work
[7] = 24 hours, several effective concentrations, no other stimulus
[8] = multicenter trials in Europe, ILP for STS

Nc1ccncc1 [4-AP, 4-Aminopyridine]
TNF-α up-regulation (normal human T-cells; [7]): no significant TNF-α up-regulation

COC(=O)C1=C(C)NC(C)=C([N+](=O)[O-])C1c1ccccc1C(F)(F)F (stereo not drawn) [+Bay K, R-(+)-Bay K8644]
effect on DTX-K-induced TNF-α secretion (normal human T-cells; 24 hours): prevented completely | TNF-α up-regulation (normal human T-cells; [7]): no significant TNF-α up-regulation

Clc1ccccc1C(c1ccccc1)(c1ccccc1)n1ccnc1 [CLT, Clotrimazole]
TNF-α up-regulation (normal human T-cells): no significant TNF-α up-regulation

N#Cc1cc2[nH]c(=O)c(=O)[nH]c2cc1[N+](=O)[O-] [CNQX]
TNF-α up-regulation (normal human T-cells; [7]): no significant TNF-α up-regulation

O=C(O)c1cc([N+](=O)[O-])ccc1NCCCc1ccccc1 [NPPB]
effect on DTX-K-induced TNF-α secretion (normal human T-cells; 24 hours): no such interrupting effect | TNF-α up-regulation (normal human T-cells; [7]): no significant TNF-α up-regulation | effective concentrations (ion channels): 100 to 200 µM

CCCCCCCCCCCCCC(=O)O[C@@H]1[C@@H](C)[C@@]2(O)[C@@H](C=C(CO)C[C@]3(O)C(=O)C(C)=C[C@@H]23)[C@@H]2C(C)(C)[C@]12OC(C)=O [PMA]
fold increase in TNFα secretion (normal human T-cells; 24 hours, no other stimulus): 41.3 fold increase

C=C[C@H]1C[N@@]2CC[C@H]1C[C@H]2[C@H](O)c1ccnc2ccc(OC)cc12 [Quinine]
TNF-α up-regulation (normal human T-cells; [7]): no significant TNF-α up-regulation | effective concentrations (ion channels): 1 to 10 µM

CC[N+](CC)(CC)CC [TEA, Tetraethylammonium]
TNF-α up-regulation (normal human T-cells): no significant TNF-α up-regulation

NC1=N[C@H](O)[C@H]2[C@H]3O[C@]4(O)O[C@@H]([C@@H](O)[C@@]2(N1)[C@@H]4O)[C@]3(O)CO [TTX, Tetrodotoxin]
TNF-α up-regulation (normal human T-cells): no significant TNF-α up-regulation

N[C@@H](Cc1ccc(N(CCCl)CCCl)cc1)C(=O)O [melphalan]
complete response (CR) rate [1]: ~50% | overall response rate [1]: 80%

Alpha-dendrotoxin
concentration range blocking cloned Kv1.1, Kv1.2 and Kv1.6 channels [2]: low nanomolar range

Kaliotoxin (GVEINVKCSGSPQCLKPCKDAGMRFGKCMNRKCHCTPK) [KTX]
Kd (Kv1.3; bath application to Xenopus laevis oocytes, Mourre et al, 1999, read-out: K(d), recombinant Kv1.3): 0.1 nM | fold increase in TNFα secretion (normal human T-cells; 24 hours, no other stimulus): 15.1 fold increase | Ki (Kv1.1 [3]): 20 nM | Kd (Kv1.2; bath application to Xenopus laevis oocytes, Mourre et al, 1999, read-out: K(d), recombinant Kv1.2): 25 nM | Kd (Kv1.1 [4]; bath application to Xenopus laevis oocytes, Mourre et al, 1999, read-out: K(d), recombinant Kv1.1): 1.5 nM | effective concentrations (ion channels): 0.001 to 0.1 µM

Kaliotoxin (from UniProt P24662 1-38) (peptide)
fold increase in TNFα secretion by human T-cells (ELISA, 24 h) [5]: 15.1 fold

Pi4: 38-amino acid long peptide from the venom of the scorpion Pandinus imperator (IEAIRCGGSRDCYRPCQKRTGCPNAKCINKTCKCYGCS; UniProt P58498 1-38, looked up)
block of Shaker B K^+-channels (Shaker B K^+-channels): blocks completely and reversibly

TNF-α
complete response (CR) rate [1]: 70%-90% | overall response rate [1]: 95%-100% | major response rates, median (high-grade STS; largest single-center studies in STS, range 58%-91%): 76% | median limb salvage rate (high-grade STS; largest single-center studies in STS, range 58%-97%): 84% | median limb salvage rate (high-grade STS; [8]): 82% | overall response rate (high-grade STS; [8]): 76% | increase in the number of host ED1-positive cells accumulated in the liver [6]: up to two fold increase

maurotoxins: natural and synthetic maurotoxins, four disulfide bridges scorpion toxin (VSCTGSKDCYAPCRKQTGCPNAKCINKSCKCYGC; disulfide (positions not given here); also: four disulfide bridges, pairing not given here; UniProt P80719 1-34, looked up)
IC50 (Kv1.3; Xenopus oocytes, Rochat et al, 1998, read-out: half-effects (IC50), Kv1.3): ~150 nM | IC50 (Kv1.2; Xenopus oocytes, Rochat et al, 1998, read-out: half-effects (IC50), Kv1.2): ~0.8 nM | IC50 (Kv1.1 [4]; Xenopus oocytes, Rochat et al, 1998, read-out: half-effects (IC50), Kv1.1): ~40 nM

rCharybdotoxin [CTX]
TNF-α up-regulation (normal human T-cells; [7]): no significant TNF-α up-regulation

rHongotoxin-1: Centruroides limbatus toxin, blocks Kv1.1, Kv1.2 and Kv1.3 (TVIDVKCTSPKQCLPPCKAQFGIRAGAKCMNGKCKCYPH; ends and bridges not checked; cysteine pairing not given here; UniProt P59847 1-39, looked up)
blocking concentration, Kv1.1, Kv1.2 and Kv1.3 (Kv1.1, Kv1.2 and Kv1.3): 0.1 to 0.2 pM

rMargatoxin (TIINVKCTSPKQCLPPCKAQFGQSAGAKCMNGKCKCYPH) [MgTX]
fold increase in TNFα secretion (normal human T-cells; 24 hours, no other stimulus): 6.5 fold increase

rMargatoxin (from UniProt P40755 1-39) (peptide)
fold increase in TNFα secretion by human T-cells (ELISA, 24 h) [5]: 6.5 fold
